{"source": "patent US20230137216A1", "about": "“Stabilization of Pharmaceutical Compositions Comprising Polysorbate” (LEK Pharmaceuticals d.d., priority 2020, published 2023)", "key": {"[1]": {"test": "Accelerated stability testing of PS20 (polysorbate content by mixed-mode chromatography with CAD)", "procedure": "(§1) PS20 or PS80 obtained from different manufacturers (see Table 1) was dissolved in 20 mM aqueous buffer at pH 5.5 or 6.5 in a glass vial to a final concentration of 0.02% (w/v) polysorbate. The buffer salts used in the histidine buffers investigated were histidine chloride (HisCl) and various further histidine buffer salts (see below, all obtained from Sigma-Aldrich (now Merck KgaA)).\n(§2) Degradation mechanisms of the polysorbates were explored using 20 mM imidazole chloride and 20 mM alanine chloride buffer salts. Also, HisCl buffer salt comprising solutions were prepared with the additional excipients of mannitol or trehalose (both Sigma-Aldrich) to determine the influence of sugars and their derivatives on polysorbate degradation. Finally, two different mAbs were used as the active agent that each contained 10 mg/mL mAb, 0.02% PS80 HX2 and 20 mM HisCl buffer salt at pH 6.5. The therapeutic protein solutions were provided by Lek d.d. (Mengeš, Slovenia). In all cases, the starting point samples were collected immediately and stored at −80° C. The vials were then placed into a 50° C. incubator for up to 2 months, with samples collected at 1 month and further samples in some cases at 2 months. All of these samples were stored at −80° C. for subsequent analysis.\n(§3) The polysorbate contents were analysed and quantified using a method based on mixed-mode chromatography, as mixed anion exchange and reversed phase, combined with a charged aerosol detector (CAD). The external standard approach was used for quantification of the surfactants. Chromatographic analysis was carried out using the method of Hewitt et al. (Hewitt, D. et al. J. Chromatogr. A 1218, 2138-2145 (2011).\n(§4) Analytes were separated using a Waters Oasis MAX column (30 μm particle size, 2.1 mm×20 mm), column temperature 30° C., flow rate 1 ml/min and a total run time of 10 min. The injection volume was 10 μL. Initial conditions were set at 90% solvent A (2% formic acid in purified water) and 10% solvent B (2% formic acid in isopropanol). Solvent B was increased to 20% in the first minute and held for 2.4 min. POE sorbitan esters were eluted using a step gradient of 20% to 100% B over 0.1 min, followed by an equilibration step of 10% B for 0.9 min."}, "[2]": {"test": "Accelerated stability testing of PS80 (polysorbate content by mixed-mode chromatography with CAD)", "procedure": "as §1, §2, §3, §4"}, "[3]": {"settings": "as reported in prior work; cited from earlier work"}, "[4]": {"test": "Accelerated stability testing of PS80 HX2 (polysorbate content by mixed-mode chromatography with CAD)", "settings": "for degradation of PS80 HX2 in the presence of mAb1 / degradation of PS80 HX2 in the presence of mAb2: pH 6.5; for degradation of polysorbate 80 HX2: 0.02% w/v PS80 HX2, 20 mM histidine buffer salt, pH 6.5, 50° C.", "procedure": "as §1, §2, §3, §4"}, "[5]": {"settings": "0.02% w/v PS20, 20 mM histidine chloride, pH 6.5, 50° C., 1 month"}, "[6]": {"settings": "0.02% w/v PS80, 20 mM histidine chloride, pH 6.5, 50° C., 1 month"}}, "note": "Entries after “also recorded” stand apart in the source; their conditions may differ.", "data": [{"compound": "O=C(O)CN(CCN(CC(=O)O)CC(=O)O)CC(=O)O", "note": "[EDTA]", "values": [{"measurement": "effect of added excipient on degradation of PS20", "setting": "[1]; [5]", "result": "did not slow down the degradation"}, {"measurement": "effect of added excipient on degradation of PS80", "setting": "[2]; [6]", "result": "did not slow down the degradation"}]}, {"compound": "[Cl-].[Na+]", "note": "[NaCl]", "values": [{"measurement": "effect of added excipient on degradation of PS20", "setting": "[1]; [5]", "result": "did not slow down the degradation"}, {"measurement": "effect of added excipient on degradation of PS80", "setting": "[2]; [6]", "result": "did not slow down the degradation"}]}, {"compound": "CC(=O)O.N[C@@H](Cc1c[nH]cn1)C(=O)O", "note": "[histidine acetate]", "values": [{"measurement": "oxidative degradation in buffer system of histidine and histidine acetate", "setting": "[3]", "result": "promoted oxidative degradation"}]}, {"compound": "N[C@@H](Cc1c[nH]cn1)C(=O)O.O=C(O)CC(O)C(=O)O", "note": "[histidine malate]", "values": [{"measurement": "degradation of PS80 HX2 in the presence of mAb1", "setting": "[4]", "result": "no significant degradation"}, {"measurement": "degradation of PS80 HX2 in the presence of mAb2", "setting": "[4]", "result": "no significant degradation"}, {"measurement": "degradation of PS20 (Merck)", "setting": "[1]; pH 5.5", "result": "significantly less degradation"}, {"measurement": "degradation of PS80 (Merck)", "setting": "[2]; pH 5.5", "result": "significantly less degradation"}]}, {"compound": "N[C@@H](Cc1cnc[nH]1)C(=O)O.O=C(O)CCC(=O)C(=O)O", "note": "[histidine α-ketoglutarate]", "values": [{"measurement": "degradation of polysorbate 80 HX2", "setting": "[4]; 1 month", "result": "major to almost complete degradation"}]}, {"compound": "Cl.c1c[nH]cn1", "note": "[imidazole chloride]", "values": [{"measurement": "degradation of PS80 HX2", "setting": "[4]; 0.02% w/v PS80 HX2, 20 mM buffer salt, AlaCl pH 5.0 or 6.0, ImiCl pH 5.0, 6.5 or 7.0, 50° C., 1 month", "result": "degraded almost entirely; also recorded: Polysorbate degradation was detected"}]}, {"compound": "OC[C@@H](O)[C@@H](O)[C@H](O)[C@H](O)CO", "note": "[mannitol]", "values": [{"measurement": "effect of added excipient on degradation of PS20", "setting": "[1]; pH 6.5", "result": "did not slow down the degradation"}, {"measurement": "effect of added excipient on degradation of PS80", "setting": "[2]; pH 6.5", "result": "did not slow down the degradation"}]}, {"compound": "OC[C@H]1O[C@H](O[C@H]2O[C@H](CO)[C@@H](O)[C@H](O)[C@H]2O)[C@H](O)[C@@H](O)[C@@H]1O", "note": "[trehalose]", "values": [{"measurement": "effect of added excipient on degradation of PS20", "setting": "[1]; pH 6.5", "result": "did not slow down the degradation"}, {"measurement": "effect of added excipient on degradation of PS80", "setting": "[2]; pH 6.5", "result": "did not slow down the degradation"}]}, {"compound": "alanine chloride", "values": [{"measurement": "degradation of PS80 HX2", "setting": "[4]; pH 5", "result": "no degradation"}]}, {"compound": "histidine chloride [reference compound]", "values": [{"measurement": "degradation of PS80 HX2 in the presence of mAb1", "setting": "[4]", "result": "significant degradation"}, {"measurement": "degradation of PS80 HX2 in the presence of mAb2", "setting": "[4]", "result": "significant degradation"}, {"measurement": "degradation of PS20", "setting": "[1]; pH 5.5", "result": "severe degradation"}, {"measurement": "degradation of PS20 (Merck)", "setting": "[1]; pH 5.5", "result": "showed degradation"}, {"measurement": "degradation of PS80", "setting": "[2]; pH 5.5", "result": "severe degradation"}, {"measurement": "degradation of PS80 (Merck)", "setting": "[2]; pH 5.5", "result": "showed degradation"}]}, {"compound": "histidine glutarate", "values": [{"measurement": "degradation of polysorbate 80 HX2", "setting": "[4]; 1 month", "result": "major to almost complete degradation"}]}, {"compound": "polyoxyethylene (20) sorbitan monooleate [PS80]", "values": [{"measurement": "rate of degradation compared with PS20 samples from the same manufacturer", "setting": "[2]; pH 5.5", "result": "generally degrading faster"}]}]}
